# Measurements from US8247170B2, “Detection of penicillin tolerance in Group B Streptococcus: single nucleotide polymorphisms in penicillin binding protein 4” (priority 2008, dated 2012).
# System: GBS clinical isolates and laboratory strains
# Experiment: Macrobroth penicillin tolerance assay
# Type: cell-based, Group B Streptococcus
# Conditions: then 24 h drug-free; for 10xMIC, regrowth O.D.600: Penicillin G 10×MIC90 48 h; for 30xMIC, regrowth O.D.600: Penicillin G 30×MIC90 48 h; for 100xMIC, regrowth O.D.600: Penicillin G 100×MIC90 48 h; for 300xMIC, regrowth O.D.600: Penicillin G 300×MIC90 48 h
# Procedure: Using this modified penicillin tolerance assay, tolerant strains from the GBS clinical isolates can be more efficiently identified. In this macrobroth culture format, 25 ml THB broth GBS cultures (containing clinical isolates) were grown to an early exponential growth phase (˜0.2 OD600). Cell cultures (6 ml) were collected and divided into 4 culture tubes. […] Cell cultures were shaken at 150 rpm in order to maintain cells in suspension for proper growth. Subcultures (1/20 dilution) of cells were put into fresh THB containing […] Penase (i.e., 100 μl of Penase 10,000 U stock into 4 ml THB culture). Subcultures were allowed to grow for 24 hours at 37° C. Cell growth was monitored by OD (see Example 2).
# (I) Bacterial Strains and Culture Conditions. GBS strains A909 (serotype IA), 515 (serotype IA), NEM316 (serotype III), COHI (serotype III), 2603V/R (serotype V) and O90R (non-typable) were used in this study. E. coli Top10 cells were used for the recombination experiments. GBS was cultured in Todd Hewitt broth (THB) or Tryptic Soy 5% sheep blood (TS) media and E. coli in Luria-broth (LB) medium or agar. Antibiotics were used at the following concentrations: for GBS—penicillin G (MIC90 0.06 μg ml^−1), ampicillin (MIC90 0.12 μg ml^−1), vancomycin (MIC90 2 μg ml^−1), cefazolin (MIC90 1 μg ml^−1) and chloramphenicol (5 μg ml^−1); for E. coli—ampicillin (50 μg ml^−1) and chloramphenicol (5 μg ml^−1). Both GBS and E. coli cultures were grown at 37° C. (II) Tolerance Using the MBC:MIC Ratio Method. Three GBS laboratory strains (i.e., A909, NEM316, and O90R) were cultured overnight for 18 h at 37° C. in THB. Subcultures in THB were subsequently grown to exponential phase (OD600˜0.3; i.e. 5×10^5 cfu/ml) at 37° C. Cell cultures were then exposed to different concentrations of antibiotics (Penicillin G, Ampicillin, Cefozolin or Vancomycin). […] Cell cultures were dispersed every 18 h before OD600 was measured to determine the lowest concentration of antibiotic with 90% growth inhibition (MIC90). Antibiotic treated cells (8 μl) from each well were re-suspended into PBS (100 μl) and plated (54 μl) on TS agar plates and allowed to grow for an additional 24 h at 37° C. Cell count was performed to determine the lowest concentration of antibiotic with 90% killing of original inoculums (MBC90). (III) Penicillin Killing and Regrowth Tolerance Assay by Microbroth Dilution. Three GBS laboratory strains (i.e., A909, NEM316, and O90R) were cultured overnight for 18 h at 37° C. in THB. Subcultures in THB were subsequently grown to exponential phase (OD600˜0.3) at 37° C. Cell cultures were then exposed to different concentrations of Penicillin G (Sigma, St. Louis, Mo.). […] Cell cultures were dispersed. A 1:20 dilution of cells was re-plated into new wells containing fresh THB with 500 U Penase (to degrade residual penicillin). Cell cultures were allowed to re-grow for an additional 24 h at 37° C. before the OD600 was measured. (IV) Measuring Cell Viability by Determining ATP Concentration. GBS strains were cultured for 18 h at 37° C. in THB. These cells were inoculated into fresh THB and subsequently allowed to grow to exponential phase (OD600 0.25-0.3) at 37° C. One ml of each culture was centrifuged at 5,000×g for 4 min. The cell pellet was re-suspended in ATP-free water. Cellular ATP was extracted using trichloroacetic acid (TCA) (5%) for 2 min and subsequently neutralized with Tris-EDTA-0.1M NaOAc, pH 7.75 to 10×TCA volume. The initial (in.) cellular ATP concentration ([ATP]) was measured using the ENLITEN (Promega) luciferase based reaction kit. THB cultures were then treated with 100×MIC90 Penicillin G for 22 h. The experimental (exp.) cellular ATP was extracted and the concentration was measured as stated above. Based on the calculations ([ATP] exp.)/([ATP] in./O.D. in.), differences in viability were equated with the change in [ATP]. (V) Measuring Penicillin Induced Lysis. Three GBS laboratory strains (A909, NEM316, and O90R) were cultured for 18 h at 37° C. in THB. […]
structure (smiles),measurement,setting,value
CC1(C)S[C@@H]2[C@H](NC(=O)Cc3ccccc3)C(=O)N2[C@H]1C(=O)O [Penicillin G],"10xMIC, regrowth O.D.600",GBS strain 308 (V),−− (“−−” indicates an O.D.600 of 0.001 to 0.099)
same,"30xMIC, regrowth O.D.600",GBS strain 308 (V),−− (“−−” indicates an O.D.600 of 0.001 to 0.099)
same,"100xMIC, regrowth O.D.600",GBS strain 308 (V),−− (“−−” indicates an O.D.600 of 0.001 to 0.099)
same,"300xMIC, regrowth O.D.600",GBS strain 308 (V),−− (“−−” indicates an O.D.600 of 0.001 to 0.099)
same,"10xMIC, regrowth O.D.600",GBS strain 311 (Ib),−− (“−−” indicates an O.D.600 of 0.001 to 0.099)
same,"30xMIC, regrowth O.D.600",GBS strain 311 (Ib),−− (“−−” indicates an O.D.600 of 0.001 to 0.099)
same,"100xMIC, regrowth O.D.600",GBS strain 311 (Ib),+ (“+” indicates an O.D.600 of 0.100 to 0.250)
same,"300xMIC, regrowth O.D.600",GBS strain 311 (Ib),+ (“+” indicates an O.D.600 of 0.100 to 0.250)
same,"10xMIC, regrowth O.D.600",GBS strain 316 (V),−− (“−−” indicates an O.D.600 of 0.001 to 0.099)
same,"30xMIC, regrowth O.D.600",GBS strain 316 (V),−− (“−−” indicates an O.D.600 of 0.001 to 0.099)
same,"100xMIC, regrowth O.D.600",GBS strain 316 (V),−− (“−−” indicates an O.D.600 of 0.001 to 0.099)
same,"300xMIC, regrowth O.D.600",GBS strain 316 (V),−− (“−−” indicates an O.D.600 of 0.001 to 0.099)
same,"10xMIC, regrowth O.D.600",GBS strain 320 (III),+++ (“+++” indicates an O.D.600 of 0.751 to 1.500)
same,"30xMIC, regrowth O.D.600",GBS strain 320 (III),+++ (“+++” indicates an O.D.600 of 0.751 to 1.500)
same,"100xMIC, regrowth O.D.600",GBS strain 320 (III),+++ (“+++” indicates an O.D.600 of 0.751 to 1.500)
same,"300xMIC, regrowth O.D.600",GBS strain 320 (III),+++ (“+++” indicates an O.D.600 of 0.751 to 1.500)
same,"10xMIC, regrowth O.D.600",GBS strain 357 (NT),−− (“−−” indicates an O.D.600 of 0.001 to 0.099)
same,"30xMIC, regrowth O.D.600",GBS strain 357 (NT),−− (“−−” indicates an O.D.600 of 0.001 to 0.099)
same,"100xMIC, regrowth O.D.600",GBS strain 357 (NT),+++ (“+++” indicates an O.D.600 of 0.751 to 1.500)
same,"300xMIC, regrowth O.D.600",GBS strain 357 (NT),++ (“++” indicates an O.D.600 of 0.251 to 0.750)
same,"10xMIC, regrowth O.D.600",GBS strain 359 (V),−− (“−−” indicates an O.D.600 of 0.001 to 0.099)
same,"30xMIC, regrowth O.D.600",GBS strain 359 (V),−− (“−−” indicates an O.D.600 of 0.001 to 0.099)
same,"100xMIC, regrowth O.D.600",GBS strain 359 (V),−− (“−−” indicates an O.D.600 of 0.001 to 0.099)
same,"300xMIC, regrowth O.D.600",GBS strain 359 (V),−− (“−−” indicates an O.D.600 of 0.001 to 0.099)
same,"10xMIC, regrowth O.D.600",GBS strain 367 (V),−− (“−−” indicates an O.D.600 of 0.001 to 0.099)
same,"30xMIC, regrowth O.D.600",GBS strain 367 (V),−− (“−−” indicates an O.D.600 of 0.001 to 0.099)
same,"100xMIC, regrowth O.D.600",GBS strain 367 (V),−− (“−−” indicates an O.D.600 of 0.001 to 0.099)
same,"300xMIC, regrowth O.D.600",GBS strain 367 (V),−− (“−−” indicates an O.D.600 of 0.001 to 0.099)
same,"10xMIC, regrowth O.D.600",GBS strain 377 (V),−− (“−−” indicates an O.D.600 of 0.001 to 0.099)
same,"30xMIC, regrowth O.D.600",GBS strain 377 (V),−− (“−−” indicates an O.D.600 of 0.001 to 0.099)
same,"100xMIC, regrowth O.D.600",GBS strain 377 (V),−− (“−−” indicates an O.D.600 of 0.001 to 0.099)
same,"300xMIC, regrowth O.D.600",GBS strain 377 (V),−− (“−−” indicates an O.D.600 of 0.001 to 0.099)
same,"10xMIC, regrowth O.D.600",GBS strain 378 (NT),−− (“−−” indicates an O.D.600 of 0.001 to 0.099)
same,"30xMIC, regrowth O.D.600",GBS strain 378 (NT),−− (“−−” indicates an O.D.600 of 0.001 to 0.099)
same,"100xMIC, regrowth O.D.600",GBS strain 378 (NT),−− (“−−” indicates an O.D.600 of 0.001 to 0.099)
same,"300xMIC, regrowth O.D.600",GBS strain 378 (NT),−− (“−−” indicates an O.D.600 of 0.001 to 0.099)
same,"10xMIC, regrowth O.D.600",GBS strain 379 (V),−− (“−−” indicates an O.D.600 of 0.001 to 0.099)
same,"30xMIC, regrowth O.D.600",GBS strain 379 (V),−− (“−−” indicates an O.D.600 of 0.001 to 0.099)
same,"100xMIC, regrowth O.D.600",GBS strain 379 (V),−− (“−−” indicates an O.D.600 of 0.001 to 0.099)
same,"300xMIC, regrowth O.D.600",GBS strain 379 (V),−− (“−−” indicates an O.D.600 of 0.001 to 0.099)
same,"10xMIC, regrowth O.D.600",GBS strain 380 (NT),−− (“−−” indicates an O.D.600 of 0.001 to 0.099)
same,"30xMIC, regrowth O.D.600",GBS strain 380 (NT),−− (“−−” indicates an O.D.600 of 0.001 to 0.099)
same,"100xMIC, regrowth O.D.600",GBS strain 380 (NT),+++ (“+++” indicates an O.D.600 of 0.751 to 1.500)
same,"300xMIC, regrowth O.D.600",GBS strain 380 (NT),+ (“+” indicates an O.D.600 of 0.100 to 0.250)
same,"10xMIC, regrowth O.D.600",GBS strain 388 (NT),−− (“−−” indicates an O.D.600 of 0.001 to 0.099)
same,"30xMIC, regrowth O.D.600",GBS strain 388 (NT),−− (“−−” indicates an O.D.600 of 0.001 to 0.099)
same,"100xMIC, regrowth O.D.600",GBS strain 388 (NT),−− (“−−” indicates an O.D.600 of 0.001 to 0.099)
same,"300xMIC, regrowth O.D.600",GBS strain 388 (NT),−− (“−−” indicates an O.D.600 of 0.001 to 0.099)
same,"10xMIC, regrowth O.D.600",GBS strain 389 (Ia),++ (“++” indicates an O.D.600 of 0.251 to 0.750)
same,"30xMIC, regrowth O.D.600",GBS strain 389 (Ia),+++ (“+++” indicates an O.D.600 of 0.751 to 1.500)
same,"100xMIC, regrowth O.D.600",GBS strain 389 (Ia),+++ (“+++” indicates an O.D.600 of 0.751 to 1.500)
same,"300xMIC, regrowth O.D.600",GBS strain 389 (Ia),+++ (“+++” indicates an O.D.600 of 0.751 to 1.500)
same,"10xMIC, regrowth O.D.600",GBS strain 391 (NT),++ (“++” indicates an O.D.600 of 0.251 to 0.750)
same,"30xMIC, regrowth O.D.600",GBS strain 391 (NT),++ (“++” indicates an O.D.600 of 0.251 to 0.750)
same,"100xMIC, regrowth O.D.600",GBS strain 391 (NT),++ (“++” indicates an O.D.600 of 0.251 to 0.750)
same,"300xMIC, regrowth O.D.600",GBS strain 391 (NT),++ (“++” indicates an O.D.600 of 0.251 to 0.750)
same,"10xMIC, regrowth O.D.600",GBS strain 399 (V),−− (“−−” indicates an O.D.600 of 0.001 to 0.099)
same,"30xMIC, regrowth O.D.600",GBS strain 399 (V),+ (“+” indicates an O.D.600 of 0.100 to 0.250)
same,"100xMIC, regrowth O.D.600",GBS strain 399 (V),+ (“+” indicates an O.D.600 of 0.100 to 0.250)
same,"300xMIC, regrowth O.D.600",GBS strain 399 (V),+ (“+” indicates an O.D.600 of 0.100 to 0.250)
